These results are taken from article PMC4210147, “Sequence-Specific Dimerization of a Transmembrane Helix in Amphipol A8-35” (PLoS ONE, 2014).

SMILES strings stand for the structures.

The assay addresses T1, human GpA TM domain (Homo sapiens, UniProt P02724).
T1 construct: purchased Peptide Specialty Laboratories, Heidelberg, Germany; host or cells: chemical synthesis (custom peptide)
T1 sequence (P02724 88-120 limits assumed) 1: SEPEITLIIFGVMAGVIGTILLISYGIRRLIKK
T1 sequence (P02724 88-120 limits assumed) 2: T1 sequence (P02724 88-120 limits assumed) 1
The experiment in a line: Steady-state FRET, GpA TM helix dimerization in A8-35. The format is binding. To be noted: n = 3; for dimer fraction (in words): pH 7.4, 25°C. The source says:
Peptides corresponding to residues 69–101 of the human GpA TM domain ([…]) were custom-synthesized and labeled at the N-terminus with either the donor or the acceptor dyes fluorescein (FL) and 5-6-carboxyrhodamine (TAMRA), respectively (Peptide Specialty Laboratories, Heidelberg, Germany). The purity of the labelled peptides was confirmed by high-performance liquid chromatography (HPLC) and mass spectrometry. Based on this, the labeled peptides used in this study were>95% pure. Peptides were dissolved in 2,2,2-trifluoroethanol purchased from Sigma-Aldrich (Munich, Germany). APol A8-35 was purchased from Affymetrix (Santa Clara, USA) and sodium dodecyl sulfate (SDS) from Roth (Karlsruhe, Germany). N-dodecyl-β-D-maltopyranoside (DDM) was obtained from Sigma-Aldrich (Munich, Germany).
For Förster resonance energy transfer (FRET) measurements, equal concentrations of FL- and TAMRA-labeled GpA TM domains were used. Concentrations of the peptide stock solutions were determined from absorbance measurements on a Perkin Elmer Lambda 35 UV/VIS spectrophotometer. In all experiments, we used 0.25 µM for each of the two labeled GpA peptides. Peptides dissolved in TFE and A8-35 dissolved in ethanol were mixed, and organic solvents were removed under a gentle stream of nitrogen gas. Residual solvent traces were removed by vacuum desiccation overnight. The dried peptide/polymer film was then hydrated in 10 mM HEPES buffer (pH 7.4) containing 150 mM NaCl.
After at least 2 h of incubation at 37°C and 10 min of centrifugation at 16,000 g, steady-state fluorescence measurements were performed with the supernatant at 25°C on a Horiba Fluoromax 4 system with both excitation and emission slits at 3 nm. The excitation wavelength was set at 439 nm, and emission spectra were recorded from 480 to 650 nm. For FRET measurements with SDS, several concentrations of SDS, both below and above the CMC determined for the given buffer conditions, were used, and hydrated samples were incubated overnight.
Energy transfer E was calculated using the donor fluorescence intensities at 525 nm in presence and absence of acceptor according to [drawing 1] (1)
FD is the fluorescence intensity of the donor sample, and FDA is the fluorescence intensity of the sample containing donor and acceptor GpA TM domains at equal concentrations. The energy transfer of sequence-specific TM helix dimerization, ED, can be expressed as: [drawing 2] (2) where f D is the fraction of dimeric TM helices, P D is the probability of donor quenching when the peptides form a dimer, and E R is the energy transfer in the dimer.
The probability P D of donor quenching depends on the molar ratio of the acceptor peptides [drawing 3] , where [a] and [d] are the concentrations of acceptor and donor peptides, respectively. If the distance of the fluorophores in the dimer is much smaller than the Förster radius, as is the case here, ER can be taken as unity.
The fraction of dimers can be written as [drawing 4] , where [D] is the concentration of dimeric peptides and [T] the total peptide concentration.
The dissociation constant, K D, is given by [drawing 6] (4) where the monomer concentration is [drawing 7] .

`CC[C@H](C)[C@H](NC(=O)CNC(=O)[C@H](Cc1ccc(O)cc1)NC(=O)[C@H](CO)NC(=O)[C@@H](NC(=O)[C@H](CC(C)C)NC(=O)[C@H](CC(C)C)NC(=O)[C@@H](NC(=O)[C@@H](NC(=O)CNC(=O)[C@@H](NC(=O)[C@@H](NC(=O)CNC(=O)[C@H](C)NC(=O)[C@H](CCSC)NC(=O)[C@@H](NC(=O)CNC(=O)[C@H](Cc1ccccc1)NC(=O)[C@@H](NC(=O)[C@@H](NC(=O)[C@H](CC(C)C)NC(=O)[C@@H](NC(=O)[C@@H](NC(=O)[C@H](CCC(=O)O)NC(=O)[C@@H]1CCCN1C(=O)[C@H](CCC(=O)O)NC(=O)[C@@H](N)CO)[C@@H](C)CC)[C@@H](C)O)[C@@H](C)CC)[C@@H](C)CC)C(C)C)C(C)C)[C@@H](C)CC)[C@@H](C)O)[C@@H](C)CC)[C@@H](C)CC)C(=O)N[C@@H](CCCNC(=N)N)C(=O)N[C@@H](CCCNC(=N)N)C(=O)N[C@@H](CC(C)C)C(=O)N[C@H](C(=O)N[C@@H](CCCCN)C(=O)N[C@@H](CCCCN)C(=O)O)[C@@H](C)CC` [GpA TM domain]: the dimer fraction result (25 µM A8-35, FL- and TAMRA-labeled GpA 0.25 µM each, 10 mM HEPES pH 7.4, 150 mM NaCl, incubated at least 2 h at 37°C, measured at 25°C) is recorded as “about 0.65”. Further, the “GpA dimer dissociation at relatively higher A8-35 concentrations” value (A8-35 range 5 to 75 µM, in contrast to detergents) is “do not seem to fully dissociate the GpA dimer”. Also, the “dimer fraction (in words)” value (above 25 µM A8-35 (to 75 µM), FL- and TAMRA-labeled GpA 0.25 µM each) is “decreased only faintly with increasing polymer concentrations”; the “dimer fraction (in words)” value (low A8-35 concentrations (range 5 to 75 µM), FL- and TAMRA-labeled GpA 0.25 µM each) is on record as “Almost all peptides were dimeric”. The Kd (tested A8-35 range 5 to 75 µM, total labeled peptide 0.5 µM, 10 mM HEPES pH 7.4, 150 mM NaCl, 25°C, read-out: apparent dissociation constant K_D of GpA TM dimer) is under 300 nM.
